The target of data set [1] is EZH2-A677G (Homo sapiens (Human), UniProt Q15910, A677G). The data set is described as follows: EZH2-A677G mutant enzyme activity assay (HTRF). Format: biochemical. The settings on record: read-out: IC50 for inhibiting the activity of enzyme EZH2-A677G. Here is the method:
(§1) Histone H3 biotin labeling and S-adenosyl methionine were respectively diluted to 50 nM and 50 μM with a kinase buffer, then added to a 384-well plate at 4 μl/well. The test compound was diluted with a kinase buffer (it was diluted from the highest concentration 30 μM in 10 fold concentration gradient to 7 concentration points), then added to the 384-well microtiter plate at 4 μl/well. The plate was incubated at room temperature for 2 hours. Histone H3K27 Me3 monoclonal antibody and Streptavidin-XL665 were diluted to 30 nM and 500 nM by HTRF detection buffer, then added to the 384-well microplate at 10 µl/well and incubated for 1 hour. A well without an EZH2 enzyme and a compound was used as a negative control, and a well with an EZH2 enzyme but without a compound was used as a positive control. […] The compound logarithm concentration vs the inhibition percentage relative to the positive control well was plotted using GraphPad Prism, then the IC50 values were calculated.
Background: TR-FRET usually uses a lanthanide donor and a delayed reading to cut background.

For data set [2], the target named is EZH2-Y641F (Homo sapiens (Human), UniProt Q15910, Y641F). Briefly: EZH2-Y641F mutant enzyme activity assay (HTRF). Format: biochemical. The note with it: read-out: IC50 for inhibiting the activity of enzyme EZH2-Y641F. As to the method:
as §1

The test system of data set [3] is Pfeiffer cells. Briefly: In vitro anti-tumor cell growth assay (CellTiter-Glo), Pfeiffer. The note with it: Homo sapiens, 120 h; Pfeiffer cells (A677G mutant), 5 days; read-out: IC50 for inhibiting the growth activity of tumor cells (Pfeiffer) in vitro. The class given is cell-based. As to the method: (§2) Test Example 2. Assay for Determining In Vitro Anti-Tumor Cell Growth Activity of the Example Compounds of the Present Invention
(§3) This method was used to determinate the inhibitory effect of the compounds of the present invention on the growth activity of tumor cells (Pfeiffer or WSU-DLCL2) in vitro. Pfeiffer cells carry A677G mutant, and WSU-DLCL2 cells carry Y641F mutant.
(§4) The lymphoma suspension cell line (Pfeiffer or WSU-DLCL2) was cultured in a RPMI-1640 medium containing 10% inactivated Fetal Bovine Serum, 100 U/mL penicillin, and 100 μg/mL streptomycin, and incubated in an incubator with 5% carbon dioxide at 37° C. under a saturated humidity condition, and passaged every 3-4 days.
(§5) A cell sudpension was prepared with a fresh cell medium, added to a 96-well cell culture plate at 8000 cells/well (Pfeiffer) or 2000 cells/well (WSU-DLCL2), and incubated in 5% carbon dioxide at 37° C. incubator overnight. On the day of the experiment, the EZH2 test compounds (final concentration: 20000, 2000, 200, 20, 2, 0.2 nM) were added into the experimental wells for 3 parallel wells per group. A control well with the medium alone but without cells was set up to obtain the background luminescent value. The cell culture plate was incubated in an incubator with 5% carbon dioxide at 37° C. for 5 days.
(§6) After the compounds were applied to the cells for 5 days, the cell culture plate was placed at room temperature for 30 minutes, then a CellTiter-Glo reagent equal to the volume of cell culture medium was added to each well. The contents were mixed on a shaker for 10 minutes, and the […] signal values were recorded. The cell growth inhibition rate was calculated, and the formula was: cell growth inhibiton rate=[(negative control control−experimental group)/(negative control group−background luminescent value)]×100%. The IC50 values (half inhibition rate IC50, i.e., a drug concentration that is required for 50% cell growth inhibition rate) were calculated by software from the cell growth inhibiton rate and the corresponding concentration.
A general note: In ATP-based viability assays light output follows the ATP content of the culture.

The test system of data set [4] is WSU-DLCL2 cells. Briefly: In vitro anti-tumor cell growth assay (CellTiter-Glo), WSU-DLCL2. The class given is cell-based. The note with it: Homo sapiens, WSUDLCL2, 120 h; WSU-DLCL2 cells (Y641F mutant), 5 days; read-out: IC50 for inhibiting the growth activity of tumor cells (WSU-DLCL2) in vitro. As to the method: as §2, §3, §4, §5, §6
The nature of data set [5]: Pharmacokinetics assay in SD rats after intragastrical administration. The class given is in vivo. The note with it: both sexes, Sprague-Dawley, rat, plasma, po, 5 mg/kg; for Vd/F: read-out: Apparent Distribution Volume Vz/F; for AUC: read-out: Area Under Curve AUC; for CL/F: read-out: Clearance CL/F; for half-life: read-out: Half-Life t1/2 (converted); for MRT: read-out: Mean Residence Time MRT; for Cmax: read-out: Plasma Conc. Cmax. Here is the method: Test Example 3. Pharmacokinetics Assay of the Compounds of Examples 1, 2, 3 and 9 of the Present Invention
SD rats were used as test animals. The drug concentration in plasma at different time points was determined by LC/MS/MS after intragastrical administration of the compounds of Examples 1, 2, 3 and 9 to the rats. The pharmacokinetic behavior of the compounds of the present invention was studied and evaluated in rats.
16 healthy adult Sprague-Dawley (SD) rats, half male and half female, were purchased from SINO-BRITSH SIPPR/BK LAB. ANIMAL LTD., CO, with Certificate No.: SCXK (Shanghai) 2008-0016.
The appropriate amount of each compound was weighed, and added with 0.5% CMC-Na (containing 1% Tween 80) to prepare a 1.0 mg/mL suspension by grinding.
After an overnight fast, 16 SD rats were divided into 4 groups equally, half male and half female, and administered intragastrically the test compounds at an administration volume of 5 mL/kg.
Blood (0.2 mL) was taken from the orbital sinus before administration and at 0.5, 1.0, 2.0, 4.0, 6.0, 8.0, 11.0, and 24.0 hours after administration. The samples were stored in heparinized tubes, and centrifuged for 10 minutes at 3,500 rpm to separate the blood plasma. The plasma samples were stored at −20° C.
The plasma concentration of the test compounds in rat plasma after intragastric administration was determined by LC-MS/MS.
Pharmacokinetic parameters of the compounds of Examples 1, 2, 3 and 9 of the present invention are shown below: […]

SMILES strings stand for the structures.

EZH2-Y641F, sequence (Q15910 whole entry Y641F): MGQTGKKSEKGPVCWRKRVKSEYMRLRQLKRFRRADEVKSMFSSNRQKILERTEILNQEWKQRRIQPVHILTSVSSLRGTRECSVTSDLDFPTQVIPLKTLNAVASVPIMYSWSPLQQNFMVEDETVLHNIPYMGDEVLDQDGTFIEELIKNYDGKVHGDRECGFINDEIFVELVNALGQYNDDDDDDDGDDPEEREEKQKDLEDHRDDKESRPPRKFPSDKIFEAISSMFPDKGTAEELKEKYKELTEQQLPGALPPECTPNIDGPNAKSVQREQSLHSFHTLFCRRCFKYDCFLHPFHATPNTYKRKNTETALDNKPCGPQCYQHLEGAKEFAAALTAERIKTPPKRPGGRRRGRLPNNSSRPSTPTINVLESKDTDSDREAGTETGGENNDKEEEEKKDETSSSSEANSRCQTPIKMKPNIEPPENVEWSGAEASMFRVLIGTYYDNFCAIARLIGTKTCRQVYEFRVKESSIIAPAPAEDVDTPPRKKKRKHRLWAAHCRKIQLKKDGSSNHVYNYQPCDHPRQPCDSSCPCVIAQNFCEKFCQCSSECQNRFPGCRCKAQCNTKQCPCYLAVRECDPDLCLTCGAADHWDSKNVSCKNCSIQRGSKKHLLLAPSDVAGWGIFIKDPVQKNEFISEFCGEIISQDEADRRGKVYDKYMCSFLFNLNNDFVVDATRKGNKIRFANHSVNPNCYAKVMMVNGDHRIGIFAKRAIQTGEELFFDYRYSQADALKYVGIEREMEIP
EZH2-Y641F, sequence (O75530 whole entry partner): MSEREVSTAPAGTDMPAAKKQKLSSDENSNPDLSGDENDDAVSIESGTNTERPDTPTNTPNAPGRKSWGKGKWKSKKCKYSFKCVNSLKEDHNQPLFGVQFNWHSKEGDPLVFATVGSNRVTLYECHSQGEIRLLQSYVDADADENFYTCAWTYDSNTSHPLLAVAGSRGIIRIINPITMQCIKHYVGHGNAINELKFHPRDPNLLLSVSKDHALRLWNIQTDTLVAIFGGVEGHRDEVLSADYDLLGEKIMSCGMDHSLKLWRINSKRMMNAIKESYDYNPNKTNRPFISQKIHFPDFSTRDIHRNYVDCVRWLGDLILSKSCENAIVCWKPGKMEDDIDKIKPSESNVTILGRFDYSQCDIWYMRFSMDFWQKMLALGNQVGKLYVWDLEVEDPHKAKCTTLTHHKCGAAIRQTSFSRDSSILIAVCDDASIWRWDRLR
EZH2-Y641F, sequence (Q15022 whole entry partner): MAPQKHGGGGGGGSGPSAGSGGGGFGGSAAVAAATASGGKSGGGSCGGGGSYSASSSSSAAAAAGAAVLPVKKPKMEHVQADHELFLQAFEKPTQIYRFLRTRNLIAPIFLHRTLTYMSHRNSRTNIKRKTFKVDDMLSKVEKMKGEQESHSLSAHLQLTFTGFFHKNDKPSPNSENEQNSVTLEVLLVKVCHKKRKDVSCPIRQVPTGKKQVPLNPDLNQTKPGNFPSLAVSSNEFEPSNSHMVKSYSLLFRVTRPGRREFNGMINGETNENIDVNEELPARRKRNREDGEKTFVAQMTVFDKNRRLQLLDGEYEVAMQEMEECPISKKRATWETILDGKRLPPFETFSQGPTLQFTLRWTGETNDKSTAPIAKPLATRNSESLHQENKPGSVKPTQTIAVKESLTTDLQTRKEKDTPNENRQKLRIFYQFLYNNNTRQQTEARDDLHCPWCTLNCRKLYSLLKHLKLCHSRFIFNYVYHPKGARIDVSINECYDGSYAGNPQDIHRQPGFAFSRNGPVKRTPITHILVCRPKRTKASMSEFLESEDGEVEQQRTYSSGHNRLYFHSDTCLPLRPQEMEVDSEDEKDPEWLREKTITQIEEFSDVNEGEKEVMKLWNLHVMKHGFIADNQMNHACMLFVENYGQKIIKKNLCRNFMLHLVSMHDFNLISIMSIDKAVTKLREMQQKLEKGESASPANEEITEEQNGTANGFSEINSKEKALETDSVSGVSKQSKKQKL
EZH2-Y641F, sequence (Q09028 whole entry partner): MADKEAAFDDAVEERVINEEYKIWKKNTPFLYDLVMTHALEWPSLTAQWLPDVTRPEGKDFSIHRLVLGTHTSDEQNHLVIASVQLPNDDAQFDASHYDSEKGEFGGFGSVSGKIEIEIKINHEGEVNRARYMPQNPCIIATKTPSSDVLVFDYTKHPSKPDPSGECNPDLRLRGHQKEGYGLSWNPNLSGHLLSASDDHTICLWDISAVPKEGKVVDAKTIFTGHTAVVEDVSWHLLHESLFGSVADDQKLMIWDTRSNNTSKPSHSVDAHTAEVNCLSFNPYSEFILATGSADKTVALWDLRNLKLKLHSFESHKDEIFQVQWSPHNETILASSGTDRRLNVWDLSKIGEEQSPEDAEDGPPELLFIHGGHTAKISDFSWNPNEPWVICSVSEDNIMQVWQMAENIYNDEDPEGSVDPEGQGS
EZH2-Y641F, sequence (Q6ZN18 whole entry partner): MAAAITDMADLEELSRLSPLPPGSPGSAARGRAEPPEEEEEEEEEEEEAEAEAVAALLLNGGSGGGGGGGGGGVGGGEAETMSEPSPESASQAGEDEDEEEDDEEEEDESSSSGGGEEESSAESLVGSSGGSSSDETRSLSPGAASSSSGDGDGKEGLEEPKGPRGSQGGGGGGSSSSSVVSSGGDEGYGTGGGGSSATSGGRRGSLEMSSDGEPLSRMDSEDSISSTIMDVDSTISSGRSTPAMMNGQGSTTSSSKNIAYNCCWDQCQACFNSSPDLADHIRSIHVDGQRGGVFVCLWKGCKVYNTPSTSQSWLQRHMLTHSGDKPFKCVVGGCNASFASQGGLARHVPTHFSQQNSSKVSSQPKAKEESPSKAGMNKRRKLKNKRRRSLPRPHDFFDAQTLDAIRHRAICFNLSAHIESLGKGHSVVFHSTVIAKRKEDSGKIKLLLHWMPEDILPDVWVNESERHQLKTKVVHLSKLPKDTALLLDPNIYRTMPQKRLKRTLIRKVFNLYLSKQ
EZH2-A677G, sequence (Q15910 whole entry A677G): as the sequence (Q15910 whole entry Y641F) above, with F641Y, A677G counted along it
EZH2-A677G, sequence (O75530 whole entry partner): as the sequence (O75530 whole entry partner) above
EZH2-A677G, sequence (Q15022 whole entry partner): as the sequence (Q15022 whole entry partner) above
EZH2-A677G, sequence (Q09028 whole entry partner): as the sequence (Q09028 whole entry partner) above
EZH2-A677G, sequence (Q6ZN18 whole entry partner): as the sequence (Q6ZN18 whole entry partner) above

With `CCN(c1cc2occc2c(C(=O)NCc2c(OC)cc(C)[nH]c2=O)c1C)C1CCN(C(C)=O)CC1` [Example 26, 6-((1-Acetylpiperidin-4-yl)(ethyl)amino)-N-((4-methoxy-6-methyl-2-oxo-1,2-dihydropyridin-3-yl)methyl)-5-methylbenzofuran-4-carboxamide], the IC50 (usually the midpoint of a concentration-inhibition curve) in data set [1] stood at 2.9 nM; in data set [2], 2.8 nM.

Turning to `CCN(c1cc2occc2c(C(=O)NCc2c(OC)cc(C)[nH]c2=O)c1C)C1CCN(S(C)(=O)=O)CC1` [Example 25, 6-(Ethyl(1-(methylsulfonyl)piperidin-4-yl)amino)-N-((4-methoxy-6-methyl-2-oxo-1,2-dihydropyridin-3-yl)methyl)-5-methylbenzofuran-4-carboxamide], the IC50 in data set [1] came out at 0.9 nM; in data set [2], 3.2 nM; in data set [3], 15 nM; in data set [4], 160 nM.

For the compound `CCc1cc(C)[nH]c(=O)c1CNC(=O)c1c(CC)c(N(CC)C2CCOCC2)cc2oc(CN3CCCCC3)cc12` [Example 3, 5-Ethyl-6-(ethyl(tetrahydro-2H-pyran-4-yl)amino)-N-((4-ethyl-6-methyl-2-oxo-1,2-dihydropyridin-3-yl)methyl)-2-(piperidin-1-ylmethyl)benzofuran-4-carboxamide], the IC50 in data set [1] was determined as 38 nM. In addition, the IC50 in data set [3] is 4 nM. Also, in data set [5], the Vd/F is 40.5 ± 7.97 L/kg; the AUC – broadly, the area under the concentration-time curve, a measure of exposure – was 487 ± 12 ng·h/mL; the CL/F stood at 171 ± 4.4 mL/min/kg; the half-life is 2.73 ± 0.53 h. In data set [5], the MRT (in general, the average time that molecules of a dose stay in the body) was found to be 4.65 ± 0.184 h and the Cmax (in general, the maximum level reached in the sampled fluid or tissue) was determined as 91.5 ± 5.6 ng/mL.

For `CCc1c(N(CC)C2CC(F)(F)C2)cc2occc2c1C(=O)NCc1c(OC)cc(C)[nH]c1=O` [Example 32, 6-((3,3-Difluorocyclobutyl)(ethyl)amino)-5-ethyl-N-((4-methoxy-6-methyl-2-oxo-1,2-di hydropyridin-3-yl)methyl)benzofuran-4-carboxamide], the IC50 was determined as 4 nM in data set [1], 18 nM in data set [3] and 190 nM in data set [4].

For `CCN(c1cc2occc2c(C(=O)NCc2c(OC)cc(C)[nH]c2=O)c1C)[C@H]1CC[C@H](N(C)C)CC1` [Example 24, 6-(((1r,4r)-4-(Dimethylamino)cyclohexyl)(ethyl)amino)-N-((4-methoxy-6-methyl-2-oxo-1,2-dihydropyridin-3-yl)methyl)-5-methylbenzofuran-4-carboxamide], the IC50 in data set [2] was found to be 3.4 nM; in data set [3], 19 nM; in data set [4], 45 nM.

For the compound `CCc1c(N(CC)C2CCOCC2)cc2oc(CN3CCCCC3)cc2c1C(=O)NCc1c(C)cc(C)[nH]c1=O` [Example 2, N-((4,6-Dimethyl-2-oxo-1,2-dihydropyridin-3-yl)methyl)-5-ethyl-6-(ethyl(tetrahydro-2H-pyran-4-yl)amino)-2-(piperidin-1-ylmethyl)benzofuran-4-carboxamide], the IC50 in data set [3] worked out at 13 nM. In addition, the IC50 in data set [4] worked out at 39 nM. For the same compound, in data set [5], the Vd/F worked out at 41.4 ± 7.91 L/kg, the exposure (AUC) came to 378 ng·h/mL, the CL/F worked out at 222 ± 23 mL/min/kg and the half-life is 2.2 ± 0.68 h. In data set [5], the MRT worked out at 3.18 ± 0.3 h and the Cmax worked out at 105 ± 44.5 ng/mL.

In the case of `COc1cc(C)[nH]c(=O)c1CNC(=O)c1c(C)c(N(C)C2CCOCC2)cc2occc12` [Example 23, N-((4-Methoxy-6-methyl-2-oxo-1,2-dihydropyridin-3-yl)methyl)-5-methyl-6-(methyl(tetrahydro-2H-pyran-4-yl)amino)benzofuran-4-carboxamide], the IC50 turned out to be 4.8 nM in data set [1], 0.3 nM in data set [2] and 68 nM in data set [3].

`CCN(c1cc2occc2c(C(=O)NCc2c(OC)cc(C)[nH]c2=O)c1C)C1CCOCC1` [Example 18, 6-(Ethyl(tetrahydro-2H-pyran-4-yl)amino)-N-((4-methoxy-6-methyl-2-oxo-1,2-dihydropyridin-3-yl)methyl)-5-methylbenzofuran-4-carboxamide]: the IC50 came out at 4 nM in data set [1], 2.3 nM in data set [2], 20 nM in data set [3] and 113 nM in data set [4].

Take `CCc1c(N(CC)C2CCS(=O)(=O)CC2)cc2occc2c1C(=O)NCc1c(OC)cc(C)[nH]c1=O` [Example 33, 6-((1,1-Dioxidotetrahydro-2H-thiopyran-4-yl)(ethyl)amino)-5-ethyl-N-((4-methoxy-6-methyl-2-oxo-1,2-dihydropyridin-3-yl)methyl)benzofuran-4-carboxamide]: the figures for the IC50 in data set [1], in data set [2] and in data set [3] were 2.7 nM, 0.8 nM and 22 nM, respectively.

With `CCN(c1cc2occ(C)c2c(C(=O)NCc2c(OC)cc(C)[nH]c2=O)c1C)C1CCOCC1` [Example 20, 6-(Ethyl(tetrahydro-2H-pyran-4-yl)amino)-N-((4-methoxy-6-methyl-2-oxo-1,2-dihydropyridin-3-yl)methyl)-3,5-dimethylbenzofuran-4-carboxamide], the IC50 in data set [1] amounted to 5.9 nM; in data set [2], 5.6 nM.

As to `CCc1c(N(CC)C2CCOCC2)cc2oc(CN3CCCCC3)cc2c1C(=O)NCc1c(OC)cc(C)[nH]c1=O` [Example 1, 5-Ethyl-6-(ethyl(tetrahydro-2H-pyran-4-yl)amino)-N-((4-methoxy-6-methyl-2-oxo-1,2-dihydropyridin-3-yl)methyl)-2-(piperidin-1-ylmethyl)benzofuran-4-carboxamide], the IC50 in data set [1] came to 6.4 nM. Also, in data set [3], the IC50 came out at 2 nM. Besides, in data set [5], the Vd/F worked out at 28.1 ± 18.4 L/kg, the AUC was 246 ± 127 ng·h/mL, the CL/F was determined as 390 ± 201 mL/min/kg and the half-life was 0.8 ± 0.13 h. For the same compound, in data set [5], the MRT turned out to be 2.37 ± 0.18 h and the Cmax amounted to 88.9 ± 77.1 ng/mL.

Consider `CCc1c(N(CC)C2CCC(F)(F)CC2)cc2occc2c1C(=O)NCc1c(OC)cc(C)[nH]c1=O` [Example 31, 6-((4,4-Difluorocyclohexyl)(ethyl)amino)-5-ethyl-N-((4-methoxy-6-methyl-2-oxo-1,2-dihydropyridin-3-yl)methyl)benzofuran-4-carboxamide], for which the values for the IC50 in data set [1], in data set [2] and in data set [3] were 2.7 nM, 4.5 nM and 69 nM, respectively.

The record behind these values is patent US10759787B2, “Benzofuran derivative, preparation method thereof and use thereof in medicine” (Jiangsu Hengrui Medicine Co., Ltd., priority 2015, dated 2020).
